Starred links: 1 amine or outer side, 2 acyl side, 3 side chain; linkers in the order of their positions; H or OH if unused. Non-standard residues stand in square brackets, D forms with d. Residues, ends and D or L forms follow the SMILES beside them. Groups on a side chain read outwards from the residue. *: point of attachment. X1 = CCCCCCCCCCCCCCCC(=O)N[C@@H](CCC(=O)N[C@@H](CCC(=O)N[C@@H](CCC(=O)NCCCOCCOCCOCCCNC(=O)CCC(=O)NCCCOCCOCCOCCCNC(=O)CCC(=O)NCCCOCCOCCOCCCN*)C(=O)O)C(=O)O)C(=O)O; X6 = CCCCCCCCCCCCCC(=O)N[C@@H](CCC(=O)N[C@@H](CCC(=O)N[C@@H](CCC(=O)NCCCOCCOCCOCCCNC(=O)CCC(=O)NCCCOCCOCCOCCCNC(=O)CCC(=O)NCCCOCCOCCOCCCN*)C(=O)O)C(=O)O)C(=O)O; Suc = O=C(CCC(=O)[*:2])[*:1]; αMeK = C[C@](N)(CCCCN)C(=O)O; Aib = CC(C)(N)C(=O)O
Biological target: T1, RXFP1 (Homo sapiens, UniProt Q9HBX9)
T1 construct: OVCAR5 cells expressing endogenous RXFP1; endogenous in cells; host or cells: OVCAR5
T1 sequence (Q9HBX9 1-757): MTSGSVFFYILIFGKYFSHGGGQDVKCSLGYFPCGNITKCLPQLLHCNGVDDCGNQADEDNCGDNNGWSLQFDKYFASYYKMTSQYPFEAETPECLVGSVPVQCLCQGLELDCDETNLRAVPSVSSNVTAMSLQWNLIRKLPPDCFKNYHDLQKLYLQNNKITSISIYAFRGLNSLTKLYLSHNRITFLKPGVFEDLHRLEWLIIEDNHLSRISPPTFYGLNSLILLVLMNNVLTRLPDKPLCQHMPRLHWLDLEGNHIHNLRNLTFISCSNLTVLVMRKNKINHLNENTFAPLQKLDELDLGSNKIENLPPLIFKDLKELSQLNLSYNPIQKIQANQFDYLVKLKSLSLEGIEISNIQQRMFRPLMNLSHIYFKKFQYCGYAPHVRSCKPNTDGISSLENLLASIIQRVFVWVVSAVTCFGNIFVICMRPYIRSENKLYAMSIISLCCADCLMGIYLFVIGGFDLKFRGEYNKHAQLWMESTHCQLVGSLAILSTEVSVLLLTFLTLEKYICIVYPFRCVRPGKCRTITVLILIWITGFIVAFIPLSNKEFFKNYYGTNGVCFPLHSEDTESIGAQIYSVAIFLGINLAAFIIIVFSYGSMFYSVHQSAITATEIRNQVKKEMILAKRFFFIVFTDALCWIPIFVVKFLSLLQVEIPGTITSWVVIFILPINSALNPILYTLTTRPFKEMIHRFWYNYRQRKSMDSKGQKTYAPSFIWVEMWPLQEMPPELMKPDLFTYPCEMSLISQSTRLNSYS
Assay: OVCAR5 cAMP assay (HTRF)
Assay type: cell-based
Conditions: for EC50: OVCAR 5 cells expressing endogenous RXFP1, cAMP readout; for Emax: OVCAR 5 cells, maximal cAMP relative to H2-relaxin
Source text: OVCAR5 cells expressing endogenous RXFP1 were used to test RXP1 agonist properties of peptides of the invention, and in particular of the peptides of sequence SEQ ID NO: 1-97.
Since RXFP1 is a Gs coupled GPCR, cAMP was used as readout of RXFP1 activation.
Isobutyl Methyl Xanthine (IBMX) was used to inhibit phosphodiesterase activity facilitating cAMP measurements. HTRF (Homogenous Time Resolved Fluorescence) technology was used to detect cAMP due to its great sensitivity.
In summary, OVCAR5 were grown in regular medium (RPMI) containing 10% fetal calf serum (FCS) and 1% antibiotics (penicillin/streptomycin).
Before the experiments, cells were detached with accutase and incubated for 40 minutes at 37° C. with 1 mM (3-isobutyl-1-methylxanthine) IBMX.
Cells were then distributed in 384 black well plates containing increasing concentrations of the different peptides in a fix volume of medium (without FCS).
After an incubation of 30 min at 37° C. in an humid incubator in 5% CO2, the reaction was stopped by adding a fixed volume of a solution containing a lysis buffer and cAMP-D2 (cAMP labeled with the dye d2) and the anti cAMP antibody linked to Europium and used for cAMP detection.
Readout of the experiment were performed on a fluorimeter allowing HTRF measurement. Activation curves were generated by plotting the intracellular value of cAMP versus log 10 of the compound concentration.
The 50% activation concentration (EC50) was calculated by nonlinear regression using the sigmoidal dose-response (variable slope) equation with Prism 5 software.
Emax % was determined as the maximal intracellular value of cAMP for test compound (upper limit of cAMP vs concentration curve) divided by the maximal intracellular value of cAMP for H2-relaxin determined in the same test occasion multiplied by 100. Emax %=100×[cAMPtest cpd]/[cAMPH2-Rlx]

Row | EC50 | Emax | SMILES
1 | 1.6 nM | 88% | CCCCCCCCCCCCCCCC(=O)N[C@@H](CCC(=O)N[C@@H](CCC(=O)N[C@@H](CCC(=O)NCCCOCCOCCOCCCNC(=O)CCC(=O)NCCCOCCOCCOCCCNC(=O)CCC(=O)NCCCOCCOCCOCCCNC(=O)CCC(=O)NCCCC[C@H](NC(=O)CNC(=O)[C@H](CCC(=O)O)NC(=O)C(C)(C)NC(=O)C(C)(C)NC(=O)[C@@H](NC(=O)[C@H](CCCCNC(C)=O)NC(=O)C(C)(C)NC(=O)[C@H](CCCNC(=N)N)NC(=O)[C@@H](NC(=O)[C@H](CCCCN)NC(=O)[C@H](CCC(=O)O)NC(=O)[C@H](CCCNC(=N)N)NC(=O)CNC(=O)[C@H](CCC(=O)O)NC(=O)[C@H](CC(C)C)NC(C)=O)C(C)C)[C@@H](C)CC)C(=O)N[C@@H](CO)C(=O)N[C@H](C(=O)N[C@@H](Cc1ccccc1)C(=O)N[C@@H](CO)C(=O)N[C@@](C)(CCCCN)C(=O)N[C@@H](CCCNC(=N)N)C(=O)N[C@@H](C)C(=O)N[C@@H](CCCCNC(C)=O)C(N)=O)[C@@H](C)O)C(=O)O)C(=O)O)C(=O)O [compound 29] (Ac-LEGREKVR[Aib]K(Ac)I[Aib][Aib]EGK([Suc-X1])STFS[αMeK]RAK(Ac)-NH2)
2 | 0.2 nM | 95% | CCCCCCCCCCCCCCCC(=O)N[C@@H](CCC(=O)N[C@@H](CCC(=O)N[C@@H](CCC(=O)NCCCOCCOCCOCCCNC(=O)CCC(=O)NCCCOCCOCCOCCCNC(=O)CCC(=O)NCCCOCCOCCOCCCNC(=O)CCC(=O)NCCCC[C@H](NC(=O)CNC(=O)[C@H](CCC(=O)O)NC(=O)C(C)(C)NC(=O)C(C)(C)NC(=O)[C@@H](NC(=O)[C@H](CCCCNC(C)=O)NC(=O)[C@H](C)NC(=O)[C@H](CCCNC(=N)N)NC(=O)[C@@H](NC(=O)[C@H](CCCCN)NC(=O)[C@H](CCC(=O)O)NC(=O)[C@H](CCCNC(=N)N)NC(=O)CNC(=O)[C@H](CCC(=O)O)NC(=O)[C@H](CC(C)C)NC(C)=O)C(C)C)[C@@H](C)CC)C(=O)N[C@@H](CO)C(=O)N[C@@H](CCCCN)C(=O)N[C@@H](Cc1c[nH]c2ccccc12)C(=O)N[C@@H](CO)C(=O)NC(C)(C)C(=O)N[C@@H](CCCNC(=N)N)C(=O)N[C@@H](C)C(=O)N[C@@H](CCCCN)C(N)=O)C(=O)O)C(=O)O)C(=O)O [compound 73] (Ac-LEGREKVRAK(Ac)I[Aib][Aib]EGK([Suc-X1])SKWS[Aib]RAK-NH2)
3 | 0.88 nM | 92% | CCCCCCCCCCCCCC(=O)N[C@@H](CCC(=O)N[C@@H](CCC(=O)N[C@@H](CCC(=O)NCCCOCCOCCOCCCNC(=O)CCC(=O)NCCCOCCOCCOCCCNC(=O)CCC(=O)NCCCOCCOCCOCCCNC(=O)CCC(=O)NCCCC[C@H](NC(=O)CNC(=O)[C@H](CCC(=O)O)NC(=O)C(C)(C)NC(=O)C(C)(C)NC(=O)[C@@H](NC(=O)[C@H](CCCCNC(C)=O)NC(=O)[C@H](C)NC(=O)[C@H](CCCNC(=N)N)NC(=O)[C@@H](NC(=O)[C@H](CCCCN)NC(=O)[C@H](CCC(=O)O)NC(=O)[C@H](CCCNC(=N)N)NC(=O)CNC(=O)[C@H](CCC(=O)O)NC(=O)[C@H](CC(C)C)NC(C)=O)C(C)C)[C@@H](C)CC)C(=O)N[C@@H](CO)C(=O)N[C@H](C(=O)N[C@@H](Cc1ccccc1)C(=O)N[C@@H](CO)C(=O)N[C@@](C)(CCCCN)C(=O)N[C@@H](CCCNC(=N)N)C(=O)N[C@@H](C)C(=O)N[C@@H](CCCCN)C(N)=O)[C@@H](C)O)C(=O)O)C(=O)O)C(=O)O [compound 96] (Ac-LEGREKVRAK(Ac)I[Aib][Aib]EGK([Suc-X6])STFS[αMeK]RAK-NH2)
4 | 0.52 nM | 95% | CCCCCCCCCCCCCCCC(=O)N[C@@H](CCC(=O)N[C@@H](CCC(=O)N[C@@H](CCC(=O)NCCCOCCOCCOCCCNC(=O)CCC(=O)NCCCOCCOCCOCCCNC(=O)CCC(=O)NCCCOCCOCCOCCCNC(=O)CCC(=O)NCCCC[C@H](NC(=O)CNC(=O)[C@H](CCC(=O)O)NC(=O)C(C)(C)NC(=O)C(C)(C)NC(=O)[C@@H](NC(=O)[C@H](CCCCNC(C)=O)NC(=O)[C@H](C)NC(=O)[C@H](CCCNC(=N)N)NC(=O)[C@@H](NC(=O)[C@H](CCCCN)NC(=O)[C@H](CCC(=O)O)NC(=O)[C@H](CCCNC(=N)N)NC(=O)CNC(=O)[C@H](CCC(=O)O)NC(=O)[C@H](CC(C)C)NC(C)=O)C(C)C)[C@@H](C)CC)C(=O)N[C@@H](CO)C(=O)N[C@@H](CCCNC(=N)N)C(=O)N[C@@H](Cc1c[nH]c2ccccc12)C(=O)N[C@@H](CO)C(=O)NC(C)(C)C(=O)N[C@@H](CCCNC(=N)N)C(=O)N[C@@H](CCCCN)C(=O)N[C@@H](CCCCNC(C)=O)C(N)=O)C(=O)O)C(=O)O)C(=O)O [compound 64] (Ac-LEGREKVRAK(Ac)I[Aib][Aib]EGK([Suc-X1])SRWS[Aib]RKK(Ac)-NH2)
